Experimental data from PubChem BioAssay AID2060899 (Molecular Pharmacology Branch, DTP, NCI, 2025).
Values belong to the compound of their own block, whether it stands above or below them.

System: 565726-208-R1-J5-PDC complex spheroids, growth inhibition
Assay: Anticancer human tumor 565726-208-R1-J5-PDC patient-derived pancreatic adenocarcinoma cell line growth inhibition [RAS]
Conditions: for IC50: curve of first compound; for viability, T/C: stronger effect = lower value
Procedure, shortened: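 Agents were tested in combination matrices in half-log decrements from a top concentration at or near clinical Cmax (10 microM if undetermined). Targets were multi-cell spheroids of tumour lines plus HUVEC and MSC stromal cells.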

[1] = second compound 0.00316 µM, first compound 0.0316 µM
[2] = second compound 0.00316 µM, first compound 0.1 µM
[3] = second compound 0.00316 µM, first compound 0.316 µM
[4] = second compound 0.00316 µM, first compound 1 µM
[5] = second compound 0.00316 µM, first compound 3.16 µM
[6] = second compound 0.00316 µM, first compound 10 µM
[7] = second compound 0.01 µM, first compound 0.0316 µM
[8] = second compound 0.01 µM, first compound 0.1 µM
[9] = second compound 0.01 µM, first compound 0.316 µM
[10] = second compound 0.01 µM, first compound 1 µM
[11] = second compound 0.01 µM, first compound 3.16 µM
[12] = second compound 0.01 µM, first compound 10 µM
[13] = second compound 0.0316 µM, first compound 0.0316 µM
[14] = second compound 0.0316 µM, first compound 0.1 µM
[15] = second compound 0.0316 µM, first compound 0.316 µM
[16] = second compound 0.0316 µM, first compound 1 µM
[17] = second compound 0.0316 µM, first compound 3.16 µM
[18] = second compound 0.0316 µM, first compound 10 µM
[19] = second compound 0.1 µM, first compound 0.0316 µM
[20] = second compound 0.1 µM, first compound 0.1 µM
[21] = second compound 0.1 µM, first compound 0.316 µM
[22] = second compound 0.1 µM, first compound 1 µM
[23] = second compound 0.1 µM, first compound 3.16 µM
[24] = second compound 0.1 µM, first compound 10 µM
[25] = second compound 0.316 µM, first compound 0.0316 µM
[26] = second compound 0.316 µM, first compound 0.1 µM
[27] = second compound 0.316 µM, first compound 0.316 µM
[28] = second compound 0.316 µM, first compound 1 µM
[29] = second compound 0.316 µM, first compound 3.16 µM
[30] = second compound 0.316 µM, first compound 10 µM
[31] = second compound 1 µM, first compound 0.0316 µM
[32] = second compound 1 µM, first compound 0.1 µM
[33] = second compound 1 µM, first compound 0.316 µM
[34] = second compound 1 µM, first compound 1 µM
[35] = second compound 1 µM, first compound 3.16 µM
[36] = second compound 1 µM, first compound 10 µM
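Note: spheroids exposed to compounds for seven days before readout.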
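Throughout, for viability, T/C: 100% = DMSO vehicle control viability.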

IC50 (second compound 0.00316 µM): > 10 µM
IC50 (second compound 0.01 µM): > 10 µM
IC50 (second compound 0.0316 µM): > 10 µM
IC50 (second compound 0.1 µM): > 10 µM
IC50 (second compound 0.316 µM): > 10 µM
IC50 (second compound 1 µM): > 10 µM
Structure (SMILES): Cc1nc(N2CCC3(CC2)COC(C)C3N)c(CO)nc1Sc1ccnc(N)c1Cl (stereo unspecified) + C=CC(=O)N1CCN(c2nc(OCC3CCCN3C)nc3c(F)c(-c4nc(N)cc(C)c4C(F)(F)F)c(Cl)cc23)C(C)C1
viability, T/C [1]: 115%
viability, T/C [2]: 142%
viability, T/C [3]: 71%
viability, T/C [4]: 86.8%
viability, T/C [5]: 117%
viability, T/C [6]: 143%
viability, T/C [7]: 154%
viability, T/C [8]: 134%
viability, T/C [9]: 77.8%
viability, T/C [10]: 87.9%
viability, T/C [11]: 121%
viability, T/C [12]: 148%
viability, T/C [13]: 149%
viability, T/C [14]: 173%
viability, T/C [15]: 77.3%
viability, T/C [16]: 90.5%
viability, T/C [17]: 126%
viability, T/C [18]: 139%
viability, T/C [19]: 162%
viability, T/C [20]: 147%
viability, T/C [21]: 80.6%
viability, T/C [22]: 74.2%
viability, T/C [23]: 138%
viability, T/C [24]: 126%
viability, T/C [25]: 180%
viability, T/C [26]: 136%
viability, T/C [27]: 78.5%
viability, T/C [28]: 76.7%
viability, T/C [29]: 106%
viability, T/C [30]: 140%
viability, T/C [31]: 167%
viability, T/C [32]: 135%
viability, T/C [33]: 78.3%
viability, T/C [34]: 83.4%
viability, T/C [35]: 111%
viability, T/C [36]: 133%

IC50 (second compound 0.00316 µM): > 10 µM
IC50 (second compound 0.01 µM): > 10 µM
IC50 (second compound 0.0316 µM): > 10 µM
IC50 (second compound 0.1 µM): > 10 µM
IC50 (second compound 0.316 µM): > 10 µM
IC50 (second compound 1 µM): > 10 µM
Structure (SMILES): NC1c2ccccc2OC12CCN(c1cnc3c(N4CCCc5ncccc54)n[nH]c3n1)CC2 (stereo unspecified) + C=CC(=O)N1CCN(c2nc(OCC3CCCN3C)nc3c(F)c(-c4nc(N)cc(C)c4C(F)(F)F)c(Cl)cc23)C(C)C1
viability, T/C [1]: 72.7%
viability, T/C [2]: 94.8%
viability, T/C [3]: 66.4%
viability, T/C [4]: 59.4%
viability, T/C [5]: 75.9%
viability, T/C [6]: 106%
viability, T/C [7]: 83.5%
viability, T/C [8]: 121%
viability, T/C [9]: 70.8%
viability, T/C [10]: 59.3%
viability, T/C [11]: 79.5%
viability, T/C [12]: 102%
viability, T/C [13]: 122%
viability, T/C [14]: 135%
viability, T/C [15]: 61.5%
viability, T/C [16]: 70.8%
viability, T/C [17]: 85%
viability, T/C [18]: 92.4%
viability, T/C [19]: 136%
viability, T/C [20]: 131%
viability, T/C [21]: 88.6%
viability, T/C [22]: 56.3%
viability, T/C [23]: 55%
viability, T/C [24]: 93.7%
viability, T/C [25]: 108%
viability, T/C [26]: 134%
viability, T/C [27]: 59.7%
viability, T/C [28]: 64.7%
viability, T/C [29]: 58.6%
viability, T/C [30]: 104%
viability, T/C [31]: 99.5%
viability, T/C [32]: 109%
viability, T/C [33]: 69.3%
viability, T/C [34]: 61.8%
viability, T/C [35]: 71.4%
viability, T/C [36]: 106%

IC50 (second compound 0.00316 µM): 0.0949 µM
IC50 (second compound 0.01 µM): 0.0934 µM
IC50 (second compound 0.0316 µM): > 1 µM
IC50 (second compound 0.1 µM): 0.23 µM
IC50 (second compound 0.316 µM): 0.0888 µM
IC50 (second compound 1 µM): 1 µM
Structure (SMILES): Nc1ccn(C2OC(CO)C(O)C2(F)F)c(=O)n1 (stereo unspecified) + C=CC(=O)N1CCN(c2nc(OCC3CCCN3C)nc3c(F)c(-c4nc(N)cc(C)c4C(F)(F)F)c(Cl)cc23)C(C)C1
viability, T/C (second compound 0.00316 µM, first compound 0.00316 µM): 89.3%
viability, T/C (second compound 0.00316 µM, first compound 0.01 µM): 151%
viability, T/C [1]: 76.5%
viability, T/C [2]: 54.6%
viability, T/C [3]: 52.6%
viability, T/C [4]: 39%
viability, T/C (second compound 0.01 µM, first compound 0.00316 µM): 113%
viability, T/C (second compound 0.01 µM, first compound 0.01 µM): 149%
viability, T/C [7]: 84.9%
viability, T/C [8]: 48%
viability, T/C [9]: 50.5%
viability, T/C [10]: 44.8%
viability, T/C (second compound 0.0316 µM, first compound 0.00316 µM): 148%
viability, T/C (second compound 0.0316 µM, first compound 0.01 µM): 160%
viability, T/C [13]: 77.1%
viability, T/C [14]: 59.4%
viability, T/C [15]: 48.9%
viability, T/C [16]: 49%
viability, T/C (second compound 0.1 µM, first compound 0.00316 µM): 156%
viability, T/C (second compound 0.1 µM, first compound 0.01 µM): 134%
viability, T/C [19]: 89.5%
viability, T/C [20]: 58.1%
viability, T/C [21]: 47.5%
viability, T/C [22]: 46.3%
viability, T/C (second compound 0.316 µM, first compound 0.00316 µM): 139%
viability, T/C (second compound 0.316 µM, first compound 0.01 µM): 134%
viability, T/C [25]: 72.7%
viability, T/C [26]: 46.4%
viability, T/C [27]: 52.7%
viability, T/C [28]: 41.5%
viability, T/C (second compound 1 µM, first compound 0.00316 µM): 153%
viability, T/C (second compound 1 µM, first compound 0.01 µM): 142%
viability, T/C [31]: 82.3%
viability, T/C [32]: 58.3%
viability, T/C [33]: 55.3%
viability, T/C [34]: 45.6%
